What was measured:
[1] = Potential side effects and body weight under daily oral Foretinib in STZ-diabetic mice; type: in vivo
Method: The primary objective of these experiments was to determine the effect of oral Foretinib on cutaneous innervation density in an experimental diabetic neuropathy. The numbers of animals needed for these experiments were determined by power analysis based on preliminary experiments assessing the cutaneous innervation density in diabetic and non-diabetic mice. A 50% increased nerve fiber density compared to the diabetic control was considered scientifically relevant, requiring a minimum of n=5 animals per group to achieve a power of 0.9 when assuming a standard deviation (SD) of 0.01 for all groups (normally distributed, two-sided). Animals were randomly allocated to experimental groups prior to induction of diabetes and the investigators were blinded during outcome assessments. Two experimental animals allocated to the Foretinib treated group were excluded from the experiment after not responding to the STZ injections. No outliers were excluded from the analysis. After five weeks, the experiment was terminated because 4 of 8 animals reached a predefined humane endpoint of greater than 15% weight loss compared to their pre-diabetic weight. The scheduled experimental endpoint was 12 weeks post-STZ injection. […]

[2] = test system: Embryonic rat sensory neurons; assay: Myelination in cultured embryonic rat sensory neurons (MBP-positive area); type: cell-based; conditions: primary wt neuronal/SC co-cultures, 10 days since induction of myelination, n=4, p<0.0001
Text: A) Embryonic rat sensory neurons were harvested, dissociated and cultured. Myelination was induced in presence of Foretinib (right image) or vehicle only (left image). 10 days since induction of myelination the cultures were fixed and immunosatined for myelin basic protein (MBP) (green), bIII-tubulin (red) and DAPI (blue). Scale bar: […]. B) Quantitative representation of the area proportion occupied by MBP-positive myelin segments (as in A) n=4, p<0.0001.

[3] = test system: human iPSC-derived cultured MNs; assay: Thapsigargin- and Tunicamycin-induced death of human iPSC-derived motor neurons; type: cell-based; conditions: 1 μM Thapsigargin or 1 μM Tunicamycin, 0.5 uM Foretinib, 48 hrs
Method: A) Rat sympathetic neurons grown in compartmented cultures for one week in the presence of NGF were switched into the indicated conditions for 48 h and immunostained for βIII-tubulin (white). Schematics on the left show the configurations used. In the top panels, NGF was maintained in all compartments. In the center and bottom panels, NGF was withdrawn from all compartments. At the bottom panel and 500 nM foretinib (Foret) added to one of the sides and the center compartment. Fluorescence images show βIII-tubulin-positive axons in the sides compartment. At the right, enlarged images of the axons per condition. While the NGF deprived neurons degenerated (axonal beading and degradation in the central panel), Foretinib supplemented (lower panel) axons kept growing Red arrow at the top of the image indicates the distance of the axonal extension during 48 h since NGF withdrawal. Size bar: […].B) MNs were differentiated from healthy human iPS (Line ID 1016A)^62 as described^63. 3 day old MNs were treated with either 1 μM of Thapsigargin (Thaps) or 1 μM Tunicamycin (Tuni) and/or with either 0.5 uM of Foretinib. […] C) Quantitative representation of the results as in B. Error bars represent standard error; *p<0.05; ***p<0.005; t-test. […] E) Quantitative representation of changes in mouse body weight in dependence of the indicated IP daily doses of Foretinib.

[4] = test system: TDP-43 mutant Zebra fish larvae; assay: TDP-43 mutant Zebra fish larvae ALS model; type: in vivo; set-up: motor neuron axon length and NMJ formation: dose or concentration left out as unconfirmed
[5] = test system: wt and Sod1^G93A cultured mouse MN; assay: Survival of trophic factor-deprived cultured mouse motor neurons; type: cell-based
[6] = mouse, in vivo, ip, 20 days
Method: A) Quantitative representation of changes in mouse body weight in dependence of the indicated IP daily doses of Foretinib (n=2 per dose). B) Changes in mouse blood plasma concentration of 5 mg/kg IP injected Foretinib during 48 hours after a single injection (n=3).
It is expected that Foretinib will protect against the diabetes-induced loss of terminal axons and ensheathing SC. In our previous study, 30 mg/kg of foretinib was administered via daily gavage for a course of 5 weeks. Although reported as non-toxic, at this dose the drug, along with a strong neuroprotective effect, caused lethargic behavior, ruffled fur and weight loss requiring early termination of the experiment. Due to the substantial prevalence of type 2 diabetes, we will examine the effect of foretinib treatment on type 2 diabetic mice (db/db). To define the maximal tolerable dose, we treated wt mice by daily intraperitoneal (IP) injection of several various dosages of foretinib for 20 days, while assessing the mice weight and behavior. […] Next, to define the pharmacokinetic (PK) characteristics of the drug, we performed a mass spectrometry analysis of blood samples from wt mice treated with 5 mg/kg (n=3 mice per dose per time point). We observed that IP injection of 5 mg/kg of foretinib generated nearly 100 ng/ml blood concentration during first 4 hours, declining by 4 ng/ml/hour (FIG. 7B).

[7] = test system: sympathetic and sensory neurons; conditions: in vitro, previously shown (ref 17); cited from earlier work

Structure (SMILES): COc1cc2c(Oc3ccc(NC(=O)C4(C(=O)Nc5ccc(F)cc5)CC4)cc3F)ccnc2cc1OCCCN1CCOCC1 [Foretinib, N1-[3-Fluoro-4-({6-methoxy-7-[3-(morpholin-4-yl)propoxy]quinolin-4-yl}oxy)phenyl]-N′1-(4-fluorophenyl)cyclopropane-1,1-dicarboxamide]
- relative body weight change versus pre-diabetic weight ([1]; 30 mg/kg oral daily, 5 weeks post-injection, group mean): < −15%
- signs of increased distress ([1]; 30 mg/kg orally via daily gavage, after four weeks of daily treatment): lethargic behavior, ruffled fur, and weight loss
- axonal myelination (area proportion of MBP-positive myelin segments) [2]: significantly improved axonal myelination
- rescue of ER-stressor induced motor neuron death [3]: rescued Thapsigargin-and Tunicamycin-induced death
- motor neuron axon length and NMJ formation ([4]; 2 days old larvae exposed to Foretinib): longer and forms more NMJ
- swimming deficits ([4]; TDP-43 mutant larvae, data not shown): rescuing its swimming deficits
- survival of trophic factor-deprived motor neurons [5]: induced survival
- maximal tolerable dose not affecting behavior and body weight [6]: 5 mg/kg
- axonal die-back under trophic deprivation [7]: prevents axonal die-back mechanisms

Source: patent publication US20250281496A1, “METHODS OF TREATING NEUROPATHY USING FORETINIB AND COMPOSITIONS THEREOF” (INDIANA UNIVERSITY RESEARCH AND TECHNOLOGY CORPORATION, priority 2022, published 2025)
